Results reported in article PMC9587021, “Construction of a bioluminescence-based assay for bitter taste receptors (TAS2Rs)” (Scientific Reports, 2022).

What was measured:
TAS2R30 = biological target: T1, TAS2R30 (Homo sapiens, UniProt P59541); experiment: cell-based; set-up: bioluminescence intracellular calcium release assay, mt-clytin II with coelenterazine, Gα16-gust44 co-expressed; conditions: 293AD cells
T1 sequence (P59541 1-319): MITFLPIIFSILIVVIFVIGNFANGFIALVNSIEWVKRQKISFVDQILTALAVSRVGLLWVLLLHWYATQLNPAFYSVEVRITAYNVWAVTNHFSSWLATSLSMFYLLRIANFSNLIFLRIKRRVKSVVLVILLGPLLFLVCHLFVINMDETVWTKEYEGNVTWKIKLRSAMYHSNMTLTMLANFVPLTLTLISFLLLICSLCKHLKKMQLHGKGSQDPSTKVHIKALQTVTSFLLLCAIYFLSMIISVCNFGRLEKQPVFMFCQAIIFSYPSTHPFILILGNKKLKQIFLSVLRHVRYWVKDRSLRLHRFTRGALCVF
Method: (§1) The bioluminescence-based assay was used to characterize the functional properties of various human TAS2Rs. For each TAS2R, one or more of its cognate agonists were tested against either the AD-293 or 293AD cell line, or both. Both cell lines were used because of their stronger adherent properties, which facilitate media changes on the day of the FLIPR assay. However, because both cell lines are generated differently, some disparities in gene expression capacities due to a myriad of factors could be reasonably expected. Consequently, some TAS2Rs may be well expressed in one cell line but not the other, and the ability of each cell line to express a particular TAS2R needs to be empirically evaluated. […] However, deviations between our experimental and published potency values for some ligands (i.e. TAS2R4: stevioside; TAS2R7: Mg^2+, Mn^2+, Zn^2+) were observed, which could be attributed to the use of a different assay format, readout and processing parameters, use of different cell lines with resultant potential differences in TAS2R expression levels, and quality and methodological differences in ligand preparations. Because potency values could be obtained that were consistent with the literature, or close to the reported minimal effective stimulatory concentration upon further testing of other TAS2R4/7 agonists, the deviation in EC50 values could be largely attributed to qualitative differences in the ligands (Supplementary Fig. S3). Calcium responses induced by the tested cognate agonists reflected specific TAS2R stimulation. […] Poor localization of TAS2Rs to the cell surface in heterologous systems was associated with diminished receptor signaling output and functionality. One of the more commonly used strategies to enhance the density of TAS2Rs at the cell surface involves fusing an N-terminal signal sequence of either the SST3, or Rho receptor to the TAS2R[24]. We adopted this approach, specifically co-expressing SST3-TAS2R with Gα16-gust44 chimera and mt-clytin II, to develop and validate a bioluminescence-based TAS2R intracellular calcium release assay. A strength of the bioluminescence-based TAS2R assay is its capacity to generate greater assay spans than that of fluorescence-based assays, which could be largely attributed to the utilization of mt-clytin II as the calcium reporter. Calcium-binding photoproteins in general are useful reporters for studying calcium-mediated signaling processes. […] Its fast calcium binding and dissociation kinetics render it a suitable indicator to report on swift, transient changes in calcium ion concentrations and study rapid receptor-ligand interactions. Mitochondrial targeting of clytin II was crucial to generating higher luminescence intensity than that of cytosol-localized clytin II, as inositol 1,4,5-triphosphate (IP3)-induced calcium release from the ER subsequent to ligand activation is thought to result in the formation of ER-proximal, calcium-rich microdomains that enabled the closely apposed mitochondria to sense a higher initial rise in calcium concentration than would be experienced by the bulk cytosol.

TAS2R16 = biological target: T2, TAS2R16 (Homo sapiens, UniProt Q9NYV7); experiment: cell-based; set-up: bioluminescence intracellular calcium release assay, mt-clytin II with coelenterazine, Gα16-gust44 co-expressed
T2 sequence (Q9NYV7 1-291): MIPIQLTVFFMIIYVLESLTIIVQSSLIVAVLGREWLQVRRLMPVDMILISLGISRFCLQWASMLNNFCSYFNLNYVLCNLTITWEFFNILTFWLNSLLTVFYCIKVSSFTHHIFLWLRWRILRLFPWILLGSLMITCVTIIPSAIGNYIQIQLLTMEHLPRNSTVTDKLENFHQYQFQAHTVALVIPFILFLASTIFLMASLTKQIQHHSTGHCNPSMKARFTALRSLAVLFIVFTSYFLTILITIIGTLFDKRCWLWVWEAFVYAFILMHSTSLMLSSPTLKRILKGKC
Method: as §1

TAS2R10 = biological target: T3, TAS2R10 (Homo sapiens, UniProt Q9NYW0); experiment: cell-based; set-up: bioluminescence intracellular calcium release assay, mt-clytin II with coelenterazine, Gα16-gust44 co-expressed
T3 sequence (Q9NYW0 1-307): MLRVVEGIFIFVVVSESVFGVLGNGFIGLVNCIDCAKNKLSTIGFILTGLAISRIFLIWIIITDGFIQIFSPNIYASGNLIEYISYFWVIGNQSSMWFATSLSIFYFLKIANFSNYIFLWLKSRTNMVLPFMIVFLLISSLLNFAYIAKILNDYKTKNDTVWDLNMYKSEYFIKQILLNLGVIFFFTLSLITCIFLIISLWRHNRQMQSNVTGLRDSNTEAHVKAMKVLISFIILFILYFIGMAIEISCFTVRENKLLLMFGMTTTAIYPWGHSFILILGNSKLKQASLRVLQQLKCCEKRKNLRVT
Method: as §1

TAS2R8 = biological target: T4, TAS2R8 (Homo sapiens, UniProt Q9NYW2); experiment: cell-based; set-up: bioluminescence intracellular calcium release assay, mt-clytin II with coelenterazine, Gα16-gust44 co-expressed
T4 sequence (Q9NYW2 1-309): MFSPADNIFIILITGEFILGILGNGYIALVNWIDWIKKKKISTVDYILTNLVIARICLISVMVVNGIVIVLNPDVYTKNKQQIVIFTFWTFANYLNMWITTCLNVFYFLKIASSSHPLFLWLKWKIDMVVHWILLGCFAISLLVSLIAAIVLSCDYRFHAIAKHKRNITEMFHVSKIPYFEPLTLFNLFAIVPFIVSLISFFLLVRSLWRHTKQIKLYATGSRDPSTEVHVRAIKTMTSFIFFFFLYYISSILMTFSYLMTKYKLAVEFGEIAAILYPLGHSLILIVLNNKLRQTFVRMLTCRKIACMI
Method: as §1

TAS2R3 = biological target: T5, TAS2R3 (Homo sapiens, UniProt Q9NYW6); experiment: cell-based; set-up: bioluminescence intracellular calcium release assay, mt-clytin II with coelenterazine, Gα16-gust44 co-expressed; conditions: 293AD cells
T5 sequence (Q9NYW6 1-316): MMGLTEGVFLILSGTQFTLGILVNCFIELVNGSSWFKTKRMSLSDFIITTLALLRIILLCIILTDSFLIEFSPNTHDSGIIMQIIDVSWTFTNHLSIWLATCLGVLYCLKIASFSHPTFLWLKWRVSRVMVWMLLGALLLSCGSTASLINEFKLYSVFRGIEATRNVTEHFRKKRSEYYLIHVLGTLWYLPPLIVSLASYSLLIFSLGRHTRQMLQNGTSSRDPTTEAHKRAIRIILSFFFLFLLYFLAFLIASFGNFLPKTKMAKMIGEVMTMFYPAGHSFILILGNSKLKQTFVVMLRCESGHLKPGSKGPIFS
Method: as §1

TAS2R20 = biological target: T6, TAS2R20 (Homo sapiens, UniProt P59543); experiment: cell-based; set-up: bioluminescence intracellular calcium release assay, mt-clytin II with coelenterazine, Gα16-gust44 co-expressed
T6 sequence (P59543 1-309): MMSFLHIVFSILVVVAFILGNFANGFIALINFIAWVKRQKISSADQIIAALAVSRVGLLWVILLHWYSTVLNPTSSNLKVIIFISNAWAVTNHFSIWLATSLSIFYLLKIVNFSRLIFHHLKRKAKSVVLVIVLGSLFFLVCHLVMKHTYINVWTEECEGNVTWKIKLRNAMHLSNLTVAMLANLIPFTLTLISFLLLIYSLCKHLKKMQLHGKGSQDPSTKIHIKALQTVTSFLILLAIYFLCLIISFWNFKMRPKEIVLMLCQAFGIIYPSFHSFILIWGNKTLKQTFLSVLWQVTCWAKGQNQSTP
Method: as §1

TAS2R13 = biological target: T7, TAS2R13 (Homo sapiens, UniProt Q9NYV9); experiment: cell-based; set-up: bioluminescence intracellular calcium release assay, mt-clytin II with coelenterazine, Gα16-gust44 co-expressed; conditions: 293AD cells
T7 sequence (Q9NYV9 1-303): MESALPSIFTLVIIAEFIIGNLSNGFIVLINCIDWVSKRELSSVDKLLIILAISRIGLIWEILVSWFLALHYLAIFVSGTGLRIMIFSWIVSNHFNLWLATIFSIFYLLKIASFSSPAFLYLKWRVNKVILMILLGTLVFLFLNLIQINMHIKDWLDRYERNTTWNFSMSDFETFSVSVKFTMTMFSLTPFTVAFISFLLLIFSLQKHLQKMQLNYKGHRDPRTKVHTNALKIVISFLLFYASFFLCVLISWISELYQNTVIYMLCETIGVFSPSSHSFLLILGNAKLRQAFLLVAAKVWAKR
Method: as §1

TAS2R14 = biological target: T8, TAS2R14 (Homo sapiens, UniProt Q9NYV8); experiment: cell-based; set-up: species or system 293AD; bioluminescence intracellular calcium release assay, mt-clytin II with coelenterazine, Gα16-gust44 co-expressed
T8 sequence (Q9NYV8 1-317): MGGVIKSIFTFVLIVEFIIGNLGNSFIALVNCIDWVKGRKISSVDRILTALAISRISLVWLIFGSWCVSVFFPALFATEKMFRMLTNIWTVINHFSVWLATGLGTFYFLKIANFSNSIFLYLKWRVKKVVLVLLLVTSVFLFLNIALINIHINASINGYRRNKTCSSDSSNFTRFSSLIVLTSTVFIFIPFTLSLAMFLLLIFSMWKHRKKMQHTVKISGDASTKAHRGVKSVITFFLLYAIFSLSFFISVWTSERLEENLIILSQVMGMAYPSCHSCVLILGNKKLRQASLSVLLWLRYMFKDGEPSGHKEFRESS
Method: The bioluminescence-based assay was used to characterize the functional properties of various human TAS2Rs. For each TAS2R, one or more of its cognate agonists were tested against either the AD-293 or 293AD cell line, or both. […] We adopted this approach, specifically co-expressing SST3-TAS2R with Gα16-gust44 chimera and mt-clytin II, to develop and validate a bioluminescence-based TAS2R intracellular calcium release assay.

TAS2R9 = biological target: T9, TAS2R9 (Homo sapiens, UniProt Q9NYW1); experiment: cell-based; set-up: bioluminescence intracellular calcium release assay, mt-clytin II with coelenterazine, Gα16-gust44 co-expressed; conditions: 293AD cells
T9 sequence (Q9NYW1 1-312): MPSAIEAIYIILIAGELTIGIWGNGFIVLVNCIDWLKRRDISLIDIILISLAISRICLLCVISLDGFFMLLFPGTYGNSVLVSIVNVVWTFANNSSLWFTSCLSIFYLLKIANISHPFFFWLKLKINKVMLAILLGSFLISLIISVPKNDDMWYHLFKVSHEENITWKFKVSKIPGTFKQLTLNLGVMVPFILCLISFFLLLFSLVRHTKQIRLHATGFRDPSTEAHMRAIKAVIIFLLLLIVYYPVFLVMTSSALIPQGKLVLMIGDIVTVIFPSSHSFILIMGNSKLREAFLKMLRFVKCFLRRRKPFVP
Method: as §1

TAS2R43 = biological target: T10, TAS2R43 (Homo sapiens, UniProt P59537); experiment: bioluminescence (mt-clytin II) intracellular calcium release; format: cell-based
T10 construct: AD-293 cells; co-expressed Galpha16-gust44 chimera and mt-clytin II reporter (type 2 multigene vector)
T10 sequence (P59537 2-309): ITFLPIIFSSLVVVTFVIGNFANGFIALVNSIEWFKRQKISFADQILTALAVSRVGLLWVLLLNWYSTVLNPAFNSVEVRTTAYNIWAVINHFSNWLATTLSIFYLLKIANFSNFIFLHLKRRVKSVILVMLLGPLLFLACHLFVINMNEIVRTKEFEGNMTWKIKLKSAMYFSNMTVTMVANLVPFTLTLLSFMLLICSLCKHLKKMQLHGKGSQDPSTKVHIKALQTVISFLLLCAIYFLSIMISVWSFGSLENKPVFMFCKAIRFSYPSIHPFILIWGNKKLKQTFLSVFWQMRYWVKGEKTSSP
Excerpt: bioluminescence (mt-clytin II) intracellular calcium release on TAS2R43 | TAS2R43, both aristolochic acid and aloin could be considered full agonists | indicating the partial agonist activity of caffeine towards TAS2R43

C=C[C@H]1[C@H](O[C@@H]2O[C@H](CO)[C@@H](O)[C@H](O)[C@H]2OC(=O)c2c(O)cc(O)cc2-c2cccc(O)c2)OC=C2C(=O)OCC[C@H]21 [Amarogentin]
EC50 (TAS2R30): 3 ± 1 µM

OC[C@H]1O[C@@H](Oc2ccc(O)cc2)[C@H](O)[C@@H](O)[C@@H]1O [Arbutin]
EC50 (TAS2R16; AD-293 cells): 5000 ± 1200 µM

COc1cc2c(cc1OC)[C@@]13CCN4CC5=CCO[C@H]6CC(=O)N2[C@H]1[C@H]6[C@H]5C[C@H]43 [Brucine]
EC50 (TAS2R10; 293AD cells): 21 ± 6.5 µM
EC50 (TAS2R10; AD-293 cells): 42 ± 3 µM

O=C(N[C@H](CO)[C@H](O)c1ccc([N+](=O)[O-])cc1)C(Cl)Cl [Chloramphenicol]
EC50 (TAS2R8; 293AD cells): 18 ± 2.7 µM
EC50 (TAS2R8; AD-293 cells): 70 ± 12 µM

CCN(CC)CCCC(C)Nc1ccnc2cc(Cl)ccc12 (stereo not shown) [Chloroquine diphosphate]
EC50 (TAS2R3): 45 ± 14 µM

O=C(O)c1cc(=O)c2c(OCC(O)COc3cccc4oc(C(=O)O)cc(=O)c34)cccc2o1 [Cromolyn]
EC50 (TAS2R20; 293AD cells): 35 ± 7 µM
EC50 (TAS2R20; AD-293 cells): 73 ± 26 µM

CC[N+](CC)(CC(=O)Nc1c(C)cccc1C)Cc1ccccc1 [Denatonium benzoate]
EC50 (TAS2R8; AD-293 cells): 1000 ± 100 µM

O=Cc1ccccc1O[C@@H]1O[C@H](CO)[C@@H](O)[C@H](O)[C@H]1O [Helicin]
EC50 (TAS2R16; AD-293 cells): 3000 ± 200 µM

CC[N+](C)(CC)CCOC(=O)C(O)(c1ccccc1)C1CCCCC1 (stereo not shown) [Oxyphenonium]
EC50 (TAS2R13): 161 ± 16 µM

C=C(C)[C@@H]1[C@H]2OC(=O)[C@@H]1[C@]1(O)C[C@H]3O[C@]34C(=O)O[C@H]2[C@]14C [Picrotoxinin]
EC50 (TAS2R14): 54 ± 8.4 µM

CN1CCN(CC(=O)N2c3ccccc3C(=O)Nc3cccnc32)CC1 [Pirenzepine]
EC50 (TAS2R9): 4000 ± 400 µM

OCc1ccccc1O[C@@H]1O[C@H](CO)[C@@H](O)[C@H](O)[C@H]1O [Salicin]
EC50 (TAS2R16; 293AD cells): 400 ± 200 µM
EC50 (TAS2R16; AD-293 cells): 2000 ± 600 µM

O=C1c2c(O)cccc2C([C@@H]2O[C@H](CO)[C@@H](O)[C@H](O)[C@H]2O)c2cc(CO)cc(O)c21 (stereo partly shown) [aloin]
EC50 (TAS2R43): 5 ± 3 µM

COc1cccc2c1cc([N+](=O)[O-])c1c(C(=O)O)cc3c(c12)OCO3 [aristolochic acid]
EC50 (TAS2R43): 0.026 ± 0.003 µM

Cn1c(=O)c2c(ncn2C)n(C)c1=O [caffeine]
EC50 (TAS2R43): 390 ± 120 µM
